Test results published in ChEMBL document CHEMBL1201862, “PubChem BioAssay data set” (2004).
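1) Cells in 96-well plates. 2) Compound, 48 h, 5 concentrations. 3) Linear interpolation between surrounding doses. 4) Unreached endpoint = highest concentration. GI50 marks 50% less growth.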 Active and inactive are the calls of the source. Rule as the data show it: active = GI50 up to about 1.1 µM and inactive = higher.

Legend:
Test in all cases: inhibition of tumour cell growth, NCI panel, 48 h
UACC-257 = system: UACC-257
LOX IMVI = system: LOX IMVI
MOLT-4 = system: MOLT-4
IGROV-1 = system: IGROV-1
Malme-3M = system: Malme-3M
KM12 = system: KM12
MDA-N = system: MDA-N
PC-3 = system: PC-3
SN12C = system: SN12C
NCI-H460 = system: NCI-H460
SK-OV-3 = system: SK-OV-3
TK-10 = system: TK-10
EKVX = system: EKVX
SNB-19 = system: SNB-19
786-0 = system: 786-0
ACHN = system: ACHN
Hs-578T = system: Hs-578T
M14 = system: M14
MCF7 = system: MCF7
HL-60 = system: HL-60
UO-31 = system: UO-31
HOP-92 = system: HOP-92
RPMI-8226 = system: RPMI-8226
COLO 205 = system: COLO 205
NCI/ADR-RES = system: NCI/ADR-RES
HT-29 = system: HT-29
NCI-H226 = system: NCI-H226
SW-620 = system: SW-620
A498 = system: A498
SK-MEL-28 = system: SK-MEL-28
K562 = system: K562
HCT-15 = system: HCT-15
MDA-MB-231 = system: MDA-MB-231
MDA-MB-435 = system: MDA-MB-435
HOP-62 = system: HOP-62
A549 = system: A549
OVCAR-4 = system: OVCAR-4
CCRF-CEM = system: CCRF-CEM
SK-MEL-2 = system: SK-MEL-2
SF-295 = system: SF-295
BT-549 = system: BT-549
NCI-H522 = system: NCI-H522
HCT-116 = system: HCT-116
OVCAR-5 = system: OVCAR-5
OVCAR-8 = system: OVCAR-8
UACC-62 = system: UACC-62
SF-539 = system: SF-539
NCI-H23 = system: NCI-H23
DU-145 = system: DU-145
U-251 = system: U-251
SR = system: SR
HCC 2998 = system: HCC 2998
SF-268 = system: SF-268
SK-MEL-5 = system: SK-MEL-5
OVCAR-3 = system: OVCAR-3
CAKI-1 = system: CAKI-1
RXF 393 = system: RXF 393

For `C[C@]12CC/C(=N\O)C=C1CC[C@@H]1[C@@H]2CC[C@]2(C)C(=N/O)/C(=C/c3cccnc3)C[C@@H]12`, the GI50 (UACC-257) was 17.9 µM (inactive), the GI50 (LOX IMVI) was 4.76 µM (inactive) and the GI50 (MOLT-4) was 0.546 µM (active). The GI50 (IGROV-1) was 30.4 µM (inactive), the GI50 (Malme-3M) was 17.8 µM (inactive) and the GI50 (KM12) was 6.98 µM (inactive). The GI50 (MDA-N) was 12.5 µM (inactive), the GI50 (PC-3) was 6.95 µM (inactive) and the GI50 (SN12C) was 12.2 µM (inactive). For the same compound, the GI50 (NCI-H460) was 3.46 µM (inactive), the GI50 (SK-OV-3) was 39.1 µM (inactive) and the GI50 (TK-10) was 15.1 µM (inactive). For the same compound, the GI50 (EKVX) was 18.4 µM (inactive), the GI50 (SNB-19) was 23.4 µM (inactive) and the GI50 (786-0) was 28.4 µM (inactive). The GI50 (ACHN) was 16.8 µM (inactive), the GI50 (Hs-578T) was 3.63 µM (inactive) and the GI50 (M14) was 16.5 µM (inactive). For the same compound, the GI50 (MCF7) was 6.97 µM (inactive), the GI50 (HL-60) was 0.338 µM (active) and the GI50 (UO-31) was 4.9 µM (inactive). For the same compound, the GI50 (HOP-92) was 12.8 µM (inactive), the GI50 (RPMI-8226) was 1.74 µM (inactive) and the GI50 (COLO 205) was 17.2 µM (inactive). For the same compound, the GI50 (NCI/ADR-RES) was 14.3 µM (inactive), the GI50 (HT-29) was 19 µM (inactive) and the GI50 (NCI-H226) was 3.63 µM (inactive). For the same compound, the GI50 (SW-620) was 31.8 µM (inactive), the GI50 (A498) was 14.5 µM (inactive) and the GI50 (SK-MEL-28) was 16.9 µM (inactive). For the same compound, the GI50 (K562) was 6.98 µM (inactive), the GI50 (HCT-15) was 5.9 µM and the GI50 (MDA-MB-231) was 17.7 µM (inactive). The GI50 (MDA-MB-435) was 15.9 µM (inactive), the GI50 (HOP-62) was 18.7 µM (inactive) and the GI50 (A549) was 13.1 µM (inactive). For the same compound, the GI50 (OVCAR-4) was 18.1 µM (inactive), the GI50 (CCRF-CEM) was 7.38 µM (inactive) and the GI50 (SK-MEL-2) was 19.8 µM (inactive). The GI50 (SF-295) was 6.95 µM (inactive), the GI50 (BT-549) was 12.6 µM (inactive) and the GI50 (NCI-H522) was 12.1 µM (inactive). The GI50 (HCT-116) was 17.5 µM (inactive), the GI50 (OVCAR-5) was 24.2 µM (inactive) and the GI50 (OVCAR-8) was 15.4 µM (inactive). For the same compound, the GI50 (UACC-62) was 3.3 µM (inactive), the GI50 (SF-539) was 25.2 µM (inactive) and the GI50 (NCI-H23) was 32.6 µM (inactive). The GI50 (DU-145) was 21.8 µM (inactive) and the GI50 (U-251) was 22.6 µM (inactive).
With `CC(C)N1[C@@H]2CCCC[C@H]2N(C(C)C)P1(=O)C(=O)/C=C/c1ccccc1` the GI50 (UACC-257) was 3.08 µM (inactive), the GI50 (LOX IMVI) was 2.03 µM (inactive) and the GI50 (MOLT-4) was 2.7 µM (inactive). The GI50 (IGROV-1) was 1.98 µM (inactive), the GI50 (Malme-3M) was 1 µM (active) and the GI50 (KM12) was 3.23 µM (inactive). For the same compound, the GI50 (MDA-N) was 1.83 µM (inactive), the GI50 (PC-3) was 4.18 µM (inactive) and the GI50 (SN12C) was 1.99 µM (inactive). The GI50 (NCI-H460) was 2.97 µM (inactive), the GI50 (TK-10) was 3.51 µM (inactive) and the GI50 (EKVX) was 3.54 µM (inactive). The GI50 (SNB-19) was 5.52 µM (inactive), the GI50 (786-0) was 1.81 µM (inactive) and the GI50 (ACHN) was 2.69 µM (inactive). The GI50 (Hs-578T) was 1.71 µM (inactive), the GI50 (M14) was 2.02 µM (inactive) and the GI50 (MCF7) was 3.5 µM (inactive). For the same compound, the GI50 (HL-60) was 1.65 µM (inactive), the GI50 (UO-31) was 1.64 µM (inactive) and the GI50 (HOP-92) was 1.76 µM (inactive). For the same compound, the GI50 (RPMI-8226) was 2.49 µM (inactive), the GI50 (COLO 205) was 1.91 µM (inactive) and the GI50 (NCI/ADR-RES) was 2.02 µM (inactive). The GI50 (HT-29) was 2.79 µM (inactive), the GI50 (NCI-H226) was 3.52 µM (inactive) and the GI50 (SW-620) was 2.58 µM (inactive). The GI50 (A498) was 2.75 µM (inactive), the GI50 (SK-MEL-28) was 2.37 µM (inactive) and the GI50 (K562) was 2.52 µM (inactive). For the same compound, the GI50 (HCT-15) was 1.92 µM, the GI50 (SR) was 2.83 µM (inactive) and the GI50 (MDA-MB-231) was 2.98 µM (inactive). For the same compound, the GI50 (HCC 2998) was 2.18 µM (inactive), the GI50 (MDA-MB-435) was 1.76 µM (inactive) and the GI50 (SF-268) was 2.44 µM (inactive). The GI50 (HOP-62) was 3.88 µM (inactive), the GI50 (A549) was 3.35 µM (inactive) and the GI50 (SK-MEL-5) was 1.5 µM (inactive). For the same compound, the GI50 (OVCAR-4) was 1.67 µM (inactive), the GI50 (SK-MEL-2) was 2.72 µM (inactive) and the GI50 (SF-295) was 10.6 µM (inactive). The GI50 (BT-549) was 2.91 µM (inactive), the GI50 (NCI-H522) was 1.53 µM (inactive) and the GI50 (HCT-116) was 1.96 µM (inactive). The GI50 (OVCAR-3) was 2.38 µM (inactive), the GI50 (OVCAR-5) was 2.37 µM (inactive) and the GI50 (OVCAR-8) was 1.73 µM (inactive). The GI50 (CAKI-1) was 2.54 µM (inactive), the GI50 (UACC-62) was 2.57 µM (inactive) and the GI50 (SF-539) was 1.82 µM (inactive). The GI50 (NCI-H23) was 2.16 µM (inactive), the GI50 (DU-145) was 2.08 µM (inactive) and the GI50 (RXF 393) was 1.69 µM (inactive). The GI50 (U-251) was 4.08 µM (inactive).
